In patent publication US11197479B2, “Use of silthiofam for the treatment of soybean rust” (priority 2018, dated 2021):
Where “and” joins values, the source holds several entries; their conditions need not be identical. Identical values can stand only once.

Tested on: Phakopsora pachyrhizi
Assay: Glasshouse pot trial: efficacy on soybean rust on soybean (Glycine max), visual estimation of degree of infection on leaves
Format: in vivo
Protocol: In the tables presented below, the following terms have the following meaning:
Glasshouse pot trials were conducted to evaluate the effect and efficacy of silthiofam on soybean rust disease on soybean (Glycine max).
The trial was divided in 11 treatments. In 4 of the treatments, silthiofam was applied in different amounts.
Silthiofam compositions used in this trial were prepared from the suspension concentrate containing 125 g/L of silthiofam, diluted with water to predetermined concentration and sprayed on the plants in the predetermined amounts.
In two of the treatments, silthiofam was applied in combination with additional ingredients.
First combination was of silthiofam and chitosan, wherein silthiofam was applied in an amount of 250 g/ha on the plant first and chitosan was applied subsequently in an amount of 200 g/ha.
Second combination was a combination of silthiofam and tagatose, wherein silthiofam was applied in an amount of 250 g/ha simultaneously with tagatose in an amount of 200 g/ha.
Further 6 treatments were current market available treatments of soybean rust applied in the label prescribed dose, wherein the compositions used were prepared from commercially available products prepared according to the respective label instructions and sprayed on the plants.
One treatment of the trial consisted of fungi inoculated plants which received no treatment.
Soybean plants were treated two times with silthiofam and other treatments. First treatment was applied when soybean plants reached stage BBCH16 and the second treatment was applied when soybean plants reached stage BBCH61. Growth stages were defined according to Compendium of Growth Stage Identification Keys for Mono- and Dicotyledonous Plants, Extended BBCH scale, 2nd Edition 1997, ISBN 3-9520749-3-4.
After silthiofam and other treatments were applied first time, plants were inoculated with Phakopsora pachyrhizi spores and evaluation of leaves condition and disease spread was done every 7 days.
Method used for evaluation of disease spread was visual estimation of degree of infection on leaves.
The experimental design of the pot trial was randomized design with 4 pot replications per treatment applied, wherein six soybean plants were planted per pot.
Treatments were the following:
Treatment 1: Plant inoculated with P. pachyrhizi, no treatment applied
Treatment 2: Treatment with flutriafol and azoxystrobin mixture, applied in concentration of 31.25 g flutriafol/ha and 37.5 g azoxystrobin/ha
Treatment 3: Silthiofam treatment applied in 250 g silthiofam/ha
Treatment 4: Silthiofam treatment applied in 500 g silthiofam/ha
Treatment 5: Silthiofam treatment applied in 250 g silthiofam/ha and 200 g/ha of tagatose
Treatment 6: Silthiofam treatment applied in 250 g silthiofam/ha and 200 g/ha of chitosan
Treatment 7: Mancozeb applied in 1.68 kg mancozeb/ha
Treatment 8: Chlorothalonil applied in 626.4 g chlorothalonil/ha
Treatment 9: Azoxystrobin applied in 37.5 g azoxystrobin/ha
Treatment 10: Boscalid applied in 294 g boscalid/ha
Treatment 11: Prothioconazole and tebuconazole mixture applied as 42 g prothioconazole/ha and 84 g tebuconazole/ha

Mancozeb
% efficacy (mancozeb 1.68 kg/ha, 7/7 d after first/last application, 19 d after planting, LEALOW): 50.0% and 65.9% and 64.6% and 61.2% | % efficacy (mancozeb 1.68 kg/ha, 7/7 d after first/last application, 19 d after planting, LEAMID): 46.7% and 72.3% and 54.6% and 50.0% | % efficacy (mancozeb 1.68 kg/ha, 7/7 d after first/last application, 19 d after planting, LEAUPP): 100.0% | % efficacy (mancozeb 1.68 kg/ha, 14/14 d after first/last application, 26 d after planting, LEALOW): 67.0% and 75.0% and 56.4% and 64.3% | % efficacy (mancozeb 1.68 kg/ha, 14/14 d after first/last application, 26 d after planting, LEAMID): 82.0% and 78.0% and 73.5% | % efficacy (mancozeb 1.68 kg/ha, 14/14 d after first/last application, 26 d after planting, LEAUPP): 83.8% and 72.3% and 85.9% and 76.0% | % efficacy (mancozeb 1.68 kg/ha, 21/21 d after first/last application, 33 d after planting, LEALOW): 42.0% and 38.0% and 52.0% and 48.0% | % efficacy (mancozeb 1.68 kg/ha, 21/21 d after first/last application, 33 d after planting, LEAMID): 66.0% and 62.0% and 59.0% and 60.0% | % efficacy (mancozeb 1.68 kg/ha, 21/21 d after first/last application, 33 d after planting, LEAUPP): 71.0% and 72.3% and 66.7% and 60.0% | % efficacy (mancozeb 1.68 kg/ha, 28/7 d after first/last application, 40 d after planting, LEALOW): 28.0% and 35.0% and 32.0% and 25.0% | % efficacy (mancozeb 1.68 kg/ha, 28/7 d after first/last application, 40 d after planting, LEAMID): 62.0% and 56.0% and 54.0% and 49.0% | % efficacy (mancozeb 1.68 kg/ha, 28/7 d after first/last application, 40 d after planting, LEAUPP): 82.1% and 74.2% and 73.7% and 68.9% | % efficacy (mancozeb 1.68 kg/ha, 35/14 d after first/last application, 47 d after planting, LEAMID): 48.0% and 36.0% and 32.0% and 43.0% | % efficacy (mancozeb 1.68 kg/ha, 35/14 d after first/last application, 47 d after planting, LEAUPP): 72.6% and 67.0% and 59.0% and 54.8% | % efficacy (mancozeb 1.68 kg/ha, 42/21 d after first/last application, 54 d after planting, LEAUPP): 54.0% and 43.0% and 52.0% and 38.0%

N#Cc1c(Cl)c(Cl)c(Cl)c(C#N)c1Cl [Chlorothalonil]
% efficacy (chlorothalonil 626.4 g/ha, 7/7 d after first/last application, 19 d after planting, LEALOW): 35.8% and 65.9% and 54.9% and 50.0% | % efficacy (chlorothalonil 626.4 g/ha, 7/7 d after first/last application, 19 d after planting, LEAUPP): 100.0% | % efficacy (chlorothalonil 626.4 g/ha, 14/14 d after first/last application, 26 d after planting, LEALOW): 75.0% and 69.0% and 68.1% and 59.2% | % efficacy (chlorothalonil 626.4 g/ha, 14/14 d after first/last application, 26 d after planting, LEAMID): 85.0% and 80.2% and 79.0% and 67.1% | % efficacy (chlorothalonil 626.4 g/ha, 14/14 d after first/last application, 26 d after planting, LEAUPP): 88.3% and 81.5% and 78.9% and 80.0% | % efficacy (chlorothalonil 626.4 g/ha, 21/21 d after first/last application, 33 d after planting, LEALOW): 55.0% and 40.0% and 44.0% and 45.0% | % efficacy (chlorothalonil 626.4 g/ha, 21/21 d after first/last application, 33 d after planting, LEAMID): 72.0% and 70.0% and 65.0% and 62.0% | % efficacy (chlorothalonil 626.4 g/ha, 21/21 d after first/last application, 33 d after planting, LEAUPP): 82.3% and 80.6% and 72.0% and 64.3% | % efficacy (chlorothalonil 626.4 g/ha, 28/7 d after first/last application, 40 d after planting, LEALOW): 22.0% and 34.0% and 32.0% and 26.0% | % efficacy (chlorothalonil 626.4 g/ha, 28/7 d after first/last application, 40 d after planting, LEAMID): 56.0% and 52.0% and 55.0% and 54.0% | % efficacy (chlorothalonil 626.4 g/ha, 28/7 d after first/last application, 40 d after planting, LEAUPP): 74.4% and 70.6% and 70.9% and 76.7% | % efficacy (chlorothalonil 626.4 g/ha, 35/14 d after first/last application, 47 d after planting, LEAMID): 52.0% and 44.0% and 48.0% and 42.0% | % efficacy (chlorothalonil 626.4 g/ha, 35/14 d after first/last application, 47 d after planting, LEAUPP): 63.8% and 69.0% and 68.0% | % efficacy (chlorothalonil 626.4 g/ha, 42/21 d after first/last application, 54 d after planting, LEAUPP): 52.0% and 45.0% and 42.0% and 48.0%

O=C(Nc1ccccc1-c1ccc(Cl)cc1)c1cccnc1Cl [Boscalid]
% efficacy (boscalid 294 g/ha, 7/7 d after first/last application, 19 d after planting, LEALOW): 85.8% and 86.4% and 93.6% and 100.0% | % efficacy (boscalid 294 g/ha, 7/7 d after first/last application, 19 d after planting, LEAMID): 100.0% | % efficacy (boscalid 294 g/ha, 7/7 d after first/last application, 19 d after planting, LEAUPP): 100.0% | % efficacy (boscalid 294 g/ha, 14/14 d after first/last application, 26 d after planting, LEALOW): 76.0% and 80.0% and 78.0% | % efficacy (boscalid 294 g/ha, 14/14 d after first/last application, 26 d after planting, LEAMID): 90.0% and 86.8% and 88.0% and 85.1% | % efficacy (boscalid 294 g/ha, 14/14 d after first/last application, 26 d after planting, LEAUPP): 98.6% and 92.6% and 98.7% | % efficacy (boscalid 294 g/ha, 21/21 d after first/last application, 33 d after planting, LEALOW): 55.0% and 42.0% and 38.0% and 35.0% | % efficacy (boscalid 294 g/ha, 21/21 d after first/last application, 33 d after planting, LEAMID): 56.0% and 49.0% and 55.0% and 52.0% | % efficacy (boscalid 294 g/ha, 21/21 d after first/last application, 33 d after planting, LEAUPP): 91.9% and 88.9% and 89.4% and 92.9% | % efficacy (boscalid 294 g/ha, 28/7 d after first/last application, 40 d after planting, LEALOW): 49.0% and 52.0% and 51.0% and 44.0% | % efficacy (boscalid 294 g/ha, 28/7 d after first/last application, 40 d after planting, LEAMID): 44.0% and 48.0% and 56.0% and 52.0% | % efficacy (boscalid 294 g/ha, 28/7 d after first/last application, 40 d after planting, LEAUPP): 85.9% and 100.0% and 93.1% and 85.7% | % efficacy (boscalid 294 g/ha, 35/14 d after first/last application, 47 d after planting, LEAMID): 35.0% and 42.0% and 48.0% and 43.0% | % efficacy (boscalid 294 g/ha, 35/14 d after first/last application, 47 d after planting, LEAUPP): 83.6% and 82.0% and 77.3% and 82.2% | % efficacy (boscalid 294 g/ha, 42/21 d after first/last application, 54 d after planting, LEAUPP): 75.0% and 67.0% and 64.0% and 72.0%

CO/C=C(/C(=O)OC)c1ccccc1Oc1cc(Oc2ccccc2C#N)ncn1 [Azoxystrobin]
% efficacy (azoxystrobin 37.5 g/ha, 7/7 d after first/last application, 19 d after planting, LEALOW): 64.3% and 72.8% and 67.8% and 77.8% | % efficacy (azoxystrobin 37.5 g/ha, 7/7 d after first/last application, 19 d after planting, LEAMID): 73.4% and 88.9% and 81.9% and 100.0% | % efficacy (azoxystrobin 37.5 g/ha, 7/7 d after first/last application, 19 d after planting, LEAUPP): 100.0% | % efficacy (azoxystrobin 37.5 g/ha, 14/14 d after first/last application, 26 d after planting, LEALOW): 85.0% and 79.0% and 84.1% and 80.6% | % efficacy (azoxystrobin 37.5 g/ha, 14/14 d after first/last application, 26 d after planting, LEAMID): 92.0% and 94.5% and 90.0% and 89.4% | % efficacy (azoxystrobin 37.5 g/ha, 14/14 d after first/last application, 26 d after planting, LEAUPP): 98.6% and 90.8% and 98.7% | % efficacy (azoxystrobin 37.5 g/ha, 21/21 d after first/last application, 33 d after planting, LEALOW): 72.0% and 65.0% and 59.0% and 60.0% | % efficacy (azoxystrobin 37.5 g/ha, 21/21 d after first/last application, 33 d after planting, LEAMID): 82.0% and 79.0% and 90.0% and 78.0% | % efficacy (azoxystrobin 37.5 g/ha, 21/21 d after first/last application, 33 d after planting, LEAUPP): 100.0% | % efficacy (azoxystrobin 37.5 g/ha, 28/7 d after first/last application, 40 d after planting, LEALOW): 54.0% and 67.0% and 65.0% and 62.0% | % efficacy (azoxystrobin 37.5 g/ha, 28/7 d after first/last application, 40 d after planting, LEAMID): 82.0% and 85.0% and 88.0% | % efficacy (azoxystrobin 37.5 g/ha, 28/7 d after first/last application, 40 d after planting, LEAUPP): 100.0% | % efficacy (azoxystrobin 37.5 g/ha, 35/14 d after first/last application, 47 d after planting, LEAMID): 85.0% and 88.0% and 82.0% | % efficacy (azoxystrobin 37.5 g/ha, 35/14 d after first/last application, 47 d after planting, LEAUPP): 100.0% and 98.9% | % efficacy (azoxystrobin 37.5 g/ha, 42/21 d after first/last application, 54 d after planting, LEAMID): 52.0% and 62.0% and 56.0% and 58.0% | % efficacy (azoxystrobin 37.5 g/ha, 42/21 d after first/last application, 54 d after planting, LEAUPP): 82.0% and 85.0% and 86.0%
